Literature values in patent publication US10293012B2 (priority 2017, dated 2019).

Tested on: HSV1

Substance: heparin [Soluble heparin]
- inhibition of HSV1 infection: competitively inhibit
